Assays:
[1] = test system: TT cells (MTC, RET C634W); experiment: Inhibition of proliferation of TT cells (CellTiter-Glo, 72 h); type: cell-based; conditions: Homo sapiens
Procedure: TT cells were purchased from the cell bank of the Chinese Academy of Sciences.
When TT cells were cultured to the appropriate fusion level, TT cells were collected, and the cells were adjusted to the appropriate cell concentration using complete medium, and the cell suspension was spread in a 96-well plate, 90 μL per well, and placed to the wall of a 37° C., 5% CO2 incubator overnight; and compound solutions of different concentrations were prepared using DMSO and culture medium; and a solvent control was set, the compound solution was added to a 96-well plate, 10 μL per well, and placed to the wall of a 37° C., 5% CO2 incubator for 72 hours; CellTiter-Glo solution was added thereto and the mixture was mixed well by shaking, incubated for 10 minutes in the dark, and read by BioTek Synergy H1 microplate reader.
The IC50 values were obtained by using luminescence signal values to calculate the inhibition rate, the concentration and the inhibition rate were fitted to a nonlinear regression curve using Graphpad Prism software.

Ba/F3 KIF5B-RET cells = biological target: T1, Ba/F3 KIF5B-RET cells (Homo sapiens, UniProt P07949); experiment: Inhibition of proliferation of Ba/F3 KIF5B-RET cells (CellTiter-Glo); type: cell-based; conditions: 72 to 144 hours
T1 construct: fused on or other part: P33176 (Kinesin-1 heavy chain)
T1 sequence (P07949 whole entry, change not shown, the tested form may be a part): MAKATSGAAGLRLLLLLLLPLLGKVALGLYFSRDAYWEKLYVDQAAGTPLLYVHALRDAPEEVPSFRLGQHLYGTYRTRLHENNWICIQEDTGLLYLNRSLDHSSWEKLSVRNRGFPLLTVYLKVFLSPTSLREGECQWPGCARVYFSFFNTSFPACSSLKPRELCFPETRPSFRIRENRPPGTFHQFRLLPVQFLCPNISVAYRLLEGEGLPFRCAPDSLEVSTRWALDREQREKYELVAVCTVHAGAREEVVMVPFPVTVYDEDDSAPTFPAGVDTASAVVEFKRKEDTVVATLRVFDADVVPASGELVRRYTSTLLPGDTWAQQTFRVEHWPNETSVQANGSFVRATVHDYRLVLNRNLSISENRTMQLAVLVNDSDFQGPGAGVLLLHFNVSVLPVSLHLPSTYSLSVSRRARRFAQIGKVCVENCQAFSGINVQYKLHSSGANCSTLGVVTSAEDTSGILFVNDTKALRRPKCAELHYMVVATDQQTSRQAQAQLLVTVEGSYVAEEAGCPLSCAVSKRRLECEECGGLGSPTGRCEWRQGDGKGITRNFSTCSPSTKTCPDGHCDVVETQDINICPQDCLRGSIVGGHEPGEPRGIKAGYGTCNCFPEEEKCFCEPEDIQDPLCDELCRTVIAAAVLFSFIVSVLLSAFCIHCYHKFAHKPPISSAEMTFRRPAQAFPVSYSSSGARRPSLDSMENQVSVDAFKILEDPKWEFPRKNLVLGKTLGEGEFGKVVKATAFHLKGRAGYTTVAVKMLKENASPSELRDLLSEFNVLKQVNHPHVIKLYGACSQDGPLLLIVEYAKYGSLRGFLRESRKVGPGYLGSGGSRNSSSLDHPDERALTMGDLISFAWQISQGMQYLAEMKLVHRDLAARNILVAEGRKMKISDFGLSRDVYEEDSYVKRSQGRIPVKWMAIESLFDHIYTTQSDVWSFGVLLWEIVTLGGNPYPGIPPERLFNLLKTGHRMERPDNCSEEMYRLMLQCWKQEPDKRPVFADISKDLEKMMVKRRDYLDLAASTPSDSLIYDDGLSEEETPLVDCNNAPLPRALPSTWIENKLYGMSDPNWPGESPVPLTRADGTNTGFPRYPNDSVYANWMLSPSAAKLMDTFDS
Procedure: When Ba/F3 KIF5B-RET cells were cultured to the appropriate cell density, cells were collected, and the cells were adjusted to the appropriate cell concentration using complete medium, and the cell suspension was spread in a 96-well plate, 90 μL per well, and placed in the wall of a 37° C., 5% CO2 incubator overnight; compound solutions of different concentrations were prepared using DMSO and culture medium; a solvent control was set, and the compound solution was added to a 96-well plate with […] at 37° C. in a 5% CO2 incubator for 72 to 144 hours, CellTiter-Glo solution was added thereto and mixed well by shaking, incubated for 10 minutes in the dark, and read by BioTek Synergy H1 microplate reader.
The IC50 values were obtained by using the luminescence signal values to calculate the inhibition rate, the concentrations and the inhibition rates were fitted to a nonlinear regression curve using Graphpad Prism software.

RET kinase = biological target: T2, RET kinase (Homo sapiens, UniProt P07949); experiment: HTRF kinase activity inhibition, RET wild-type; type: biochemical; conditions: ATP at Km
T2 construct: purchased Carna 08-159
T2 sequence (P07949 29-1114): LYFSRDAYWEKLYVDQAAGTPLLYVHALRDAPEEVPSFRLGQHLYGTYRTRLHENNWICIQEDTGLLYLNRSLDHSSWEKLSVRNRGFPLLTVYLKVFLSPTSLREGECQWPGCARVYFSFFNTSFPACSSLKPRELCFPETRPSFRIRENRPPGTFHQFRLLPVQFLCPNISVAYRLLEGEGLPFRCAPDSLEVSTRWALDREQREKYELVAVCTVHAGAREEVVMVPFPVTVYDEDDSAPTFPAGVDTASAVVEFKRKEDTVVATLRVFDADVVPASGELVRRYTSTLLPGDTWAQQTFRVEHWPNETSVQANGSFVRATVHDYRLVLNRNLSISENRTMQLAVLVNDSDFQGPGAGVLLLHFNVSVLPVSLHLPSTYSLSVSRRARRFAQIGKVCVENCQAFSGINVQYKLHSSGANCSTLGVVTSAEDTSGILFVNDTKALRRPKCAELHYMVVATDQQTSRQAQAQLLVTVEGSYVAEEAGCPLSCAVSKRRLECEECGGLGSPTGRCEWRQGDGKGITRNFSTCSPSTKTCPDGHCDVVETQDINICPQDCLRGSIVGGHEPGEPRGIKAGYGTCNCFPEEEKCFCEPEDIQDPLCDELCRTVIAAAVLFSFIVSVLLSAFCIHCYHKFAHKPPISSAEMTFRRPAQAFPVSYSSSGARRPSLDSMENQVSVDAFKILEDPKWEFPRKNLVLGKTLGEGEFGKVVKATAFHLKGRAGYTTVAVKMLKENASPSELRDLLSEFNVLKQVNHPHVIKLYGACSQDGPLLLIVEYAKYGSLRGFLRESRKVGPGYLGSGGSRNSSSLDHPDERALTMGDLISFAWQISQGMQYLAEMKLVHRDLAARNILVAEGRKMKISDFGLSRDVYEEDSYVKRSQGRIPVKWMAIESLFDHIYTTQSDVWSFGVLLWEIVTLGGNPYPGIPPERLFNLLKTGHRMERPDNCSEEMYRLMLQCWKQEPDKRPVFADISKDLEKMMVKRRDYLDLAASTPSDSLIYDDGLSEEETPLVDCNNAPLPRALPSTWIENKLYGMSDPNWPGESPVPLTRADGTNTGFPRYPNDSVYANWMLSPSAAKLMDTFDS
From the text: 2.2 Experimental Reagents: • RET enzyme was purchased from Carna Company, and the article number was 08-159; • RET M918T enzyme was purchased from Carna Company, and the article number was 08-508; • KIF5B-RET was purchased from SignalChem Company, the article number was R02-19FG-05; • CCDC6-RET was purchased from SignalChem Company, the article number was R02-19BG-05; • RET V804M enzyme was purchased from Thermofisher Company, and the article number was PV6223; • RET V804L enzyme was purchased from Thermofisher Company, and the article number was PV4397; • HTRF KinEASE-TK kit was purchased from Cisbio Company, and the article number was 62TK0PEC; • ATP was purchased from Thermofisher Company, and the article number was PV3227; • 384-well plate was purchased from PerkinElmer Company, and the article number was 6007290.
In this experiment, a homogeneous time-resolved fluorescence (HTRF) method was used for the detection of compounds on RET kinase activity.

[2] = Balb/C mouse pharmacokinetics, oral 5 mg/kg; type: in vivo, Balb/C mice; conditions: male, p.o. 5 mg/kg, plasma; for MRT: read-out: Average residence time MRT; for Cmax: read-out: Blood concentration Cmax; for AUC(0-t): read-out: Curve area AUC0-t; for AUC(0-inf): read-out: Curve area AUC0-∞; for half-life: read-out: Half-life t1/2 (converted); for Tmax: read-out: Peak time tmax
Procedure: The pharmacokinetic behavior of the following compound embodiments, administered orally at a dose of 5 mg/kg in plasma in mice, was studied using Balb/C mice as test animals.
Balb/C Mouse 6/embodiment, male, Shanghai Jiesijie Laboratory Animal Co., Ltd, Animal Production License No. (SCXK (Shanghai) 2013-0006 N0.311620400001794).
Balb/C mice, males; p.o. after overnight fasting, respectively, at a dose of 5 mg/kg, administered in a volume of 10 mL/kg.
0.5% CMC-Na (1% Tween80) was dissolved by ultrasound, and prepared into clear solution or uniform suspension.
Before and after administration, 0.1 mL of blood was collected from mice at 0, 0.5, 1, 2, 4, 6, 8 and 24 hours by orbital collection, placed in EDTA-K2 tubes, centrifuged at 6000 rpm at 4° C. for 6 minutes to separate plasma, and stored at −80° C.
2.5 Sample Handling: • 1) 40 μL of plasma sample was precipitated by adding 160 μL of acetonitrile, mixed and centrifuged at 3500×g for 5-20 minutes. • 2) 100 μL of the supernatant solution after treatment was taken to analyze the concentration of the test compound by LC/MS/MS.
2.6 Liquid Phase Analysis • Liquid phase conditions: Shimadzu LC-20AD pump • Mass spectrometry conditions: AB Sciex API 4000 mass spectrometer • Chromatographic column: phenomenex Gemiu 5 μM C18 50×4.6 mm • Mobile phase: Liquid A was 0.1% formic acid aqueous solution, liquid B was acetonitrile • Flow rate: 0.8 mL/min • Elution time: 0-4.0 minutes, the eluent was as follows:
The main pharmacokinetic parameters were calculated by WinNonlin 6.1 and the results of the mouse pharmacokinetic experiments were shown in Table 13 below.

KDR kinase = biological target: T3, KDR kinase (Homo sapiens, UniProt P35968); experiment: HTRF kinase activity inhibition, KDR; type: biochemical; conditions: for IC50: HTRF, ATP at Km; for Ratio (KDR/RET): KDR IC50 / RET IC50
T3 construct: purchased Carna 08-191
T3 sequence (P35968 20-1356): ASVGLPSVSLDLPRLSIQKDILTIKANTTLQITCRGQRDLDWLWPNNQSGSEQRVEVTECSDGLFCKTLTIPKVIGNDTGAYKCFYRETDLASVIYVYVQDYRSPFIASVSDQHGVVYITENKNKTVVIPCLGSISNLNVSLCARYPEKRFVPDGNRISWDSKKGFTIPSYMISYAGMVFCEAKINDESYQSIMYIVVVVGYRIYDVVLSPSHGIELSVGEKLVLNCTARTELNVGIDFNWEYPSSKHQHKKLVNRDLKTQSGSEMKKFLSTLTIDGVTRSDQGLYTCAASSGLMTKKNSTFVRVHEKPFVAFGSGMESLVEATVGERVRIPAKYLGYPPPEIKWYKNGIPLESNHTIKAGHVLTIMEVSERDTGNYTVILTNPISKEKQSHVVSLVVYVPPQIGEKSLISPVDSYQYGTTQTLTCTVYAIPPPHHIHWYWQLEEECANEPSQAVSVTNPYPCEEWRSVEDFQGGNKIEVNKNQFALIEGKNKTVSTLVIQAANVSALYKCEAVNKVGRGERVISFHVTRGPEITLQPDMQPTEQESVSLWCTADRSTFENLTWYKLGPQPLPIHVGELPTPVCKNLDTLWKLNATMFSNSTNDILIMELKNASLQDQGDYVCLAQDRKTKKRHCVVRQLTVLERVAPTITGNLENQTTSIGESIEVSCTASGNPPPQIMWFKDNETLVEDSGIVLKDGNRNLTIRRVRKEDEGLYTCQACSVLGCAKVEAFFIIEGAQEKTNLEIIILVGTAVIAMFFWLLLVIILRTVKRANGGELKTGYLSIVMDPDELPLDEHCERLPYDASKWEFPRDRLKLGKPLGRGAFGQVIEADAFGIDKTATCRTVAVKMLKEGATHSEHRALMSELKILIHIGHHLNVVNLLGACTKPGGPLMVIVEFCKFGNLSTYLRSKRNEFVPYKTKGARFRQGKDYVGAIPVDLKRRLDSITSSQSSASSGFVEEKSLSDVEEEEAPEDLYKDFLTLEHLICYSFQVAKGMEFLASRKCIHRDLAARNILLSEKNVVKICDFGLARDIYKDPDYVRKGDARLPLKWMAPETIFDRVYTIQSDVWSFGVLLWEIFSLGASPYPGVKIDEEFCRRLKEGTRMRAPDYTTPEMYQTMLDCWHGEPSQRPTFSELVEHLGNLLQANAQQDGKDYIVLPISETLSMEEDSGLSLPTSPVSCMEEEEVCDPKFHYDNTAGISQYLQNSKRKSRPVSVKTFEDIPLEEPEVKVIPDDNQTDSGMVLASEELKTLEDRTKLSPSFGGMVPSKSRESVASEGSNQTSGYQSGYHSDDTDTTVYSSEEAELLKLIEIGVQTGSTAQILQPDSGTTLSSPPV
From the text: 2.2 Experimental Reagents: • KDR kinase was purchased from Carna Company, and the article number was 08-191; • HTRF KinEASE-TK kit was purchased from Cisbio Company, and the article number was 62TK0PEC; • ATP was purchased from Thermofisher Company, and the article number was PV3227; • 384-well plate was purchased from PerkinElmer Company, and the article number was 6007290.
In this experiment, the homogeneous time-resolved fluorescence (HTRF) method was used for the detection of compounds on KDR kinase activity.

Cc1ccc(F)cc1C(=O)NC1(C)CCN(c2ccc(-c3cc(C#CC(C)(C)N)cn4ncc(C#N)c34)cn2)CC1 [Embodiment 87, N-(1-(5-(6-(3-amino-3-methylbut-1-yn-1-yl)-3-cyanopyrazolo[1,5-a]pyridin-4-yl)pyridin-2-yl)-4-methylpiperidin-4-yl)-5-fluoro-2-methylbenzamide]
IC50 [1]: 23.6 nM
IC50 (Ba/F3 KIF5B-RET cells): 18.5 nM

COc1ncc(CN2C3CC2CN(c2ccc(-c4cc(C#C[C@@H](C)O)cn5ncc(C#N)c45)cn2)C3)cc1F [Embodiment 68, 4-(6-(6-((5-Fluoro-6-methoxypyridin-3-yl)methyl)-3,6-diazabicyclo[3.1.1]heptan-3-yl)pyridin-3-yl)-6-((R)-3-hydroxybut-1-yn-1-yl)pyrazolo[1,5-a]pyridine-3-carbonitrile]
IC50 (RET kinase): 0.44 nM
MRT [2]: 3.47 h
Cmax [2]: 1700 ng/mL
AUC(0-t) [2]: 7210 ng·h/mL
AUC(0-inf) [2]: 7220 ng·h/mL
half-life [2]: 104 min
Tmax [2]: 30 min
IC50 (Ba/F3 KIF5B-RET cells): 26.3 nM
IC50 (KDR kinase): 18.9 nM
Ratio (KDR/RET) (KDR kinase): 43

COc1ncc(CN2C3CC2CN(c2ccc(-c4cc(C#CC5(O)COC5)cn5ncc(C#N)c45)cn2)C3)cc1F [Embodiment 81, 4-(6-(6-((5-Fluoro-6-methoxypyridin-3-yl)methyl)-3,6-diazabicyclo[3.1.1]heptan-3-yl)pyridin-3-yl)-6-((3-hydroxyoxetan-3-yl)ethynyl)pyrazolo[1,5-a]pyridine-3-carbonitrile]
IC50 [1]: 13.8 nM
IC50 (Ba/F3 KIF5B-RET cells): 16.8 nM

COc1ccc(CN2C3CC2CN(c2ccc(-c4cc(C#CC5(O)CCOCC5)cn5ncc(C#N)c45)cn2)C3)cn1 [Embodiment 78, 6-((4-Hydroxytetrahydro-2H-pyran-4-yl)ethynyl)-4-(6-(6-((6-methoxypyridin-3-yl)methyl)-3,6-diazabicyclo[3.1.1]heptan-3-yl)pyridin-3-yl)pyrazolo[1,5-a]pyridine-3-carbonitrile]
IC50 [1]: 13.9 nM
IC50 (Ba/F3 KIF5B-RET cells): 15.6 nM

COc1ncc(CN2C3CC2CN(c2ccc(-c4cc(N5CC(C)(C#N)C5)cn5ncc(C#N)c45)cn2)C3)cc1F [Embodiment 76, 6-(3-Cyano-3-methylazetidin-1-yl)-4-(6-(6-((5-fluoro-6-methoxypyridin-3-yl)methyl)-3,6-diazabicyclo[3.1.1]heptan-3-yl)pyridin-3-yl)pyrazolo[1,5-a]pyridine-3-carbonitrile]
IC50 [1]: 3.48 nM
IC50 (Ba/F3 KIF5B-RET cells): 6.04 nM

COc1ccc(CN2C3CC2CN(c2ccc(-c4cc(OCC5(C#N)CCOCC5)cn5ncc(C#N)c45)cn2)C3)cn1 [Embodiment 59, 6-((4-Cyanotetrahydro-2H-pyran-4-yl)methoxy)-4-(6-(6-((6-methoxypyridin-3-yl)methyl)-3,6-diazabicyclo[3.1.1]heptan-3-yl)pyridin-3-yl)pyrazolo[1,5-a]pyridine-3-carbonitrile]
IC50 (RET kinase): 0.58 nM
MRT [2]: 4.27 h
Cmax [2]: 1330 ng/mL
AUC(0-t) [2]: 7340 ng·h/mL
AUC(0-inf) [2]: 7370 ng·h/mL
half-life [2]: 140 min
Tmax [2]: 30 min
IC50 (Ba/F3 KIF5B-RET cells): 34 nM
IC50 (KDR kinase): 184 nM
Ratio (KDR/RET) (KDR kinase): 317

COc1ncc(CN2C3CC2CN(c2ccc(-c4cc(C#CC5(O)CCOCC5)cn5ncc(C#N)c45)cn2)C3)cc1F [Embodiment 79, 4-(6-(6-((5-Fluoro-6-methoxypyridin-3-yl)methyl)-3,6-diazabicyclo[3.1.1]heptan-3-yl)pyridin-3-yl)-6-((4-hydroxytetrahydro-2H-pyran-4-yl)ethynyl)pyrazolo[1,5-a]pyridine-3-carbonitrile]
IC50 [1]: 10.5 nM
IC50 (Ba/F3 KIF5B-RET cells): 13.7 nM

[2H]C([2H])([2H])Oc1ccc(CN2C3CC2CN(c2ccc(-c4cc(C#CC(C)(C)O)cn5ncc(C#N)c45)cn2)C3)cn1 [Embodiment 25, 6-(3-Hydroxy-3-methylbut-1-yn-1-yl)-4-(6-(6-((6-(methoxy-d3)pyridin-3-yl)methyl)-3,6-diazabicyclo[3.1.1]heptan-3-yl)pyridin-3-yl)pyrazolo[1,5-a]pyridine-3-carbonitrile]
IC50 [1]: 15 nM
IC50 (Ba/F3 KIF5B-RET cells): 13.5 nM

COc1ccc(CN2C3CC2CN(c2ccc(-c4cc(OCC56CC(CO)(C5)C6)cn5ncc(C#N)c45)cn2)C3)cn1 [Embodiment 45, 6-((3-(Hydroxymethyl)bicyclo[1.1.1]pentan-1-yl)methoxy)-4-(6-(6-((6-methoxypyridin-3-yl)methyl)-3,6-diazabicyclo[3.1.1]heptan-3-yl)pyridin-3-yl)pyrazolo[1,5-a]pyridine-3-carbonitrile]
IC50 [1]: 9.17 nM
IC50 (Ba/F3 KIF5B-RET cells): 7.06 nM

CC(C)(N)C#Cc1cc(-c2ccc(N3CCC(C)(NC(=O)c4ncccc4Cl)CC3)nc2)c2c(C#N)cnn2c1 [Embodiment 86, N-(1-(5-(6-(3-Amino-3-methylbut-1-yn-1-yl)-3-cyanopyrazolo[1,5-a]pyridin-4-yl)pyridin-2-yl)-4-methylpiperidin-4-yl)-3-chloropicolinamide]
IC50 [1]: 14.6 nM
IC50 (Ba/F3 KIF5B-RET cells): 15.4 nM

COc1ccc(CN2C3CC2CN(c2ccc(-c4cc(C#CC5(O)CCC5)cn5ncc(C#N)c45)cn2)C3)cn1 [Embodiment 82, 6-((1-Hydroxycyclobutyl)ethynyl)-4-(6-(6-((6-methoxypyridin-3-yl)methyl)-3,6-diazabicyclo[3.1.1]heptan-3-yl)pyridin-3-yl)pyrazolo[1,5-a]pyridine-3-carbonitrile]
IC50 [1]: 17.8 nM
IC50 (Ba/F3 KIF5B-RET cells): 21.9 nM

COCC(C)(O)C#Cc1cc(-c2ccc(N3CC4CC(C3)N4Cc3ccc(OC)nc3)nc2)c2c(C#N)cnn2c1 (stereo not drawn) [Embodiment 75, 6-(3-Hydroxy-4-methoxy-3-methylbut-1-yn-1-yl)-4-(6-(6-((6-methoxypyridin-3-yl)methyl)-3,6-diazabicyclo[3.1.1]heptan-3-yl)pyridin-3-yl)pyrazolo[1,5-a]pyridine-3-carbonitrile]
IC50 [1]: 24.4 nM
IC50 (Ba/F3 KIF5B-RET cells): 34.7 nM

COc1ncc(CN2C3CC2CN(c2ccc(-c4cc(N5CC(C)(O)C5)cn5ncc(C#N)c45)cn2)C3)cc1F [Embodiment 73, 4-(6-(6-((5-Fluoro-6-methoxypyridin-3-yl)methyl)-3,6-diazabicyclo[3.1.1]heptan-3-yl)pyridin-3-yl)-6-(3-hydroxy-3-methylazetidin-1-yl)pyrazolo[1,5-a]pyridine-3-carbonitrile]
IC50 [1]: 5.95 nM
IC50 (Ba/F3 KIF5B-RET cells): 12 nM

— patent US20230406865A1, “CRYSTAL FORM OF FREE BASE OF INHIBITOR CONTAINING BICYCLIC RING DERIVATIVE AND PREPARATION METHOD AND APPLICATION OF CRYSTAL FORM” (SHANGHAI HANSOH BIOMEDICAL CO., LTD., priority 2020, published 2023)
